pIC50: −log10 of the molar value.
Target: T1, Solute carrier family 12 member 5 (Rattus norvegicus, UniProt Q63633)
T1 sequence (Q63633 whole entry): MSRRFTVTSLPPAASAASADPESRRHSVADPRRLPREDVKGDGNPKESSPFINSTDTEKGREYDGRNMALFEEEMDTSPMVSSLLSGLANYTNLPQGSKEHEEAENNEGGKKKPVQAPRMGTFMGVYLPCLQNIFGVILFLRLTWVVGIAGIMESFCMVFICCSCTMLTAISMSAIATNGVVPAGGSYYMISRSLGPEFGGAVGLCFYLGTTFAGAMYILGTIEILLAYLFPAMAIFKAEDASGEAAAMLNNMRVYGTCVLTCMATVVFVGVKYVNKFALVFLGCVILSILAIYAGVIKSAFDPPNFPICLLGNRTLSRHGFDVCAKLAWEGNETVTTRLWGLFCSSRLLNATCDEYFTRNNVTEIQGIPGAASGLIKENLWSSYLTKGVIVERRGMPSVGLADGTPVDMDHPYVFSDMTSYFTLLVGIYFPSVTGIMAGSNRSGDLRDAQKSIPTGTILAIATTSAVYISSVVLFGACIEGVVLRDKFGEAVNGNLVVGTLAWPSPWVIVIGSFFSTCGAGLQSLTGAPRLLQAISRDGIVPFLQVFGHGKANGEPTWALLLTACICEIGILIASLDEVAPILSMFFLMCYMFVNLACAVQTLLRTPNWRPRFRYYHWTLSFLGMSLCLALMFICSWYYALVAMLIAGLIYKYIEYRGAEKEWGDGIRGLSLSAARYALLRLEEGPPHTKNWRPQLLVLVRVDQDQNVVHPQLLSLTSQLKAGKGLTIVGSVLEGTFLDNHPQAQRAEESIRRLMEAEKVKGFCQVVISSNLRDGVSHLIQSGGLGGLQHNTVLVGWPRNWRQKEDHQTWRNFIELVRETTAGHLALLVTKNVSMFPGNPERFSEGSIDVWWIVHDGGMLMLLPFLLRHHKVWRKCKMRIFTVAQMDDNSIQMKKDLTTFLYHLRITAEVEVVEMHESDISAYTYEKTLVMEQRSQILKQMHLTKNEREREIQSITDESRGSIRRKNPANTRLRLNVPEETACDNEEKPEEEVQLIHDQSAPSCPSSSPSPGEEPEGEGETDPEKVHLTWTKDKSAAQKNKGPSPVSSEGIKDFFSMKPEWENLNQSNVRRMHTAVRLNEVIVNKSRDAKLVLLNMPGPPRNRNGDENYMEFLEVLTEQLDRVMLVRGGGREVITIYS
Experiment: Inhibition of rat KCC2 expressed in human Sk-Hep cells assessed as […] off Rb+ flux by atomic absorption spectroscopic analysis
Assay type: cell-based

pIC50	Compound
6.52	CC(=O)N1CCC[C@@]1(Cc1ccccc1)C(=O)OCc1ccccc1
4.30	CC(=O)N1CCC[C@]1(Cc1ccccc1)C(=O)OCc1ccccc1
5.40	O=C(c1cc2ccccc2oc1=O)N1CCN(Cc2ccccc2)CC1
6.22	O=C(c1cc2cc(Br)ccc2oc1=O)N1CCN(Cc2ccccc2)CC1
5.89	CC(=O)N1CCCC1(Cc1ccccc1)C1=N[C@H](c2ccccc2)CO1 (mixture of isomers)
6.10	CC(=O)N1CCCC1(Cc1ccccc1)C(=O)OCc1ccccc1 (racemic)
6.70	CC(=O)N1c2ccccc2CC1(Cc1ccccc1)C(=O)OCc1ccccc1 (racemic)
6.52	CC(=O)N1CCCC1(Cc1ccccc1)C(=O)CCc1ccccc1 (racemic)
6.70	CC(=O)N1CCCC1(Cc1ccc(F)cc1)C(=O)CCc1ccc(F)cc1 (racemic)
4.70	CC(=O)N1CCCC1(COCc1ccccc1)Cc1ccccc1 (racemic)
4.90	CC(=O)N1CCCC1(Cc1ccccc1)c1nc(-c2ccccc2)co1 (racemic)
6.00	O=C1CCCC2CCC(Cc3ccccc3)(C(=O)OCc3ccccc3)N12 (racemic)

— ChEMBL document CHEMBL2029202, “Towards a KCC2 blocker pharmacophore model” (Bioorg Med Chem Lett, 2012)
